Reference: ChEMBL document CHEMBL2202954, “The effect of PLC-γ2 inhibitors on the growth of human tumour cells” (2012)

What was measured:
Format in all cases: functional
LOX IMVI = experiment: Cytotoxicity against human LOXIMVI cells assessed as cellular growth at 10 uM by SRB assay
UACC-62 = experiment: Cytotoxicity against human UACC62 cells assessed as cellular growth at 10 uM by SRB assay
SNB-19 = experiment: Cytotoxicity against human SNB19 cells assessed as cellular growth at 10 uM by SRB assay
COLO 205 = experiment: Cytotoxicity against human COLO205 cells assessed as cellular growth at 10 uM by SRB assay
SK-OV-3 = experiment: Cytotoxicity against human SKOV3 cells assessed as cellular growth at 10 uM by SRB assay
SK-MEL-5 = experiment: Cytotoxicity against human SK-MEL-5 cells assessed as cellular growth at 10 uM by SRB assay
SF-539 = experiment: Cytotoxicity against human SF539 cells assessed as cellular growth at 10 uM by SRB assay
MDA-MB-435 = experiment: Cytotoxicity against human MDA-MB-435 cells assessed as cellular growth at 10 uM by SRB assay
M14 = experiment: Cytotoxicity against human M14 cells assessed as cellular growth at 10 uM by SRB assay
PC-3 = experiment: Cytotoxicity against human PC3 cells assessed as cellular growth at 10 uM by SRB assay
RXF 393 = experiment: Cytotoxicity against human RXF393 cells assessed as cellular growth at 10 uM by SRB assay
U-251 = experiment: Cytotoxicity against human U251 cells assessed as cellular growth at 10 uM by SRB assay
HCT-116 = experiment: Cytotoxicity against human HCT116 cells assessed as cellular growth at 10 uM by SRB assay
KM12 = experiment: Cytotoxicity against human KM12 cells assessed as cellular growth at 10 uM by SRB assay
UACC-257 = experiment: Cytotoxicity against human UACC257 cells assessed as cellular growth at 10 uM by SRB assay
786-0 = experiment: Cytotoxicity against human 786-0 cells assessed as cellular growth at 10 uM by SRB assay
T47D = experiment: Cytotoxicity against human T47D cells assessed as cellular growth at 10 uM by SRB assay
NCI-H322M = experiment: Cytotoxicity against human NCI-H322M cells assessed as cellular growth at 10 uM by SRB assay
RPMI-8226 = experiment: Cytotoxicity against human RPMI8226 cells assessed as cellular growth at 10 uM by SRB assay
Hs-578T = experiment: Cytotoxicity against human Hs578T cells assessed as cellular growth at 10 uM by SRB assay

SMILES | Activity (LOX IMVI) [%] | Activity (UACC-62) [%] | Activity (SNB-19) [%] | Activity (COLO 205) [%] | Activity (SK-OV-3) [%] | Activity (SK-MEL-5) [%] | Activity (SF-539) [%] | Activity (MDA-MB-435) [%] | Activity (M14) [%] | Activity (PC-3) [%] | Activity (RXF 393) [%] | Activity (U-251) [%] | Activity (HCT-116) [%] | Activity (KM12) [%] | Activity (UACC-257) [%] | Activity (786-0) [%] | Activity (T47D) [%] | Activity (NCI-H322M) [%] | Activity (RPMI-8226) [%] | Activity (Hs-578T) [%]
O=c1/c(=C/c2ccc(Cl)cc2Cl)sc2nc(-c3ccccc3)nn12 | 95.09 | 89.1 | 102.51 | 132.3 | 109.75 | 106.75 | 121.38 | 106.5 | 103.59 | 106.44 | 121.72 | 103.07 | 106.75 | 101.32 | 112.2 | 103.31 | 90.03 | 127.05 | 112.43 | 98.17
Nc1c(C(=O)Nc2ccccc2F)sc2nc3c(cc12)C(=O)CCC3 | 54.2 | 23.7 | 41.11 | 5.76 | 13.58 | 17.91 | 10.48 | -25.93 | 19.18 | 23.38 | 9.63 | 31.63 | 32.04 | 24.63 | 66.94 | 41.5 | 40.19 | 68.76 | 52.02 | 37.25
Cc1c(OCC(=O)c2ccccc2)ccc2c1oc(=O)c1ccccc12 | 98.34 | 98.05 | 101.61 | 117.2 | 101.55 | 97.8 | 104.56 | 98.4 | 118.87 | 90 | 116.6 | 98.92 | 107.52 | 97.66 | 111.79 | 104.87 | 94.27 | 115.03 | 107.85 | 103.5
CC1(C)CCc2cc(-c3ccn(S(=O)(=O)c4ccc(Cl)cc4)n3)ccc2O1 | 72.15 | 75.03 | 100.09 | 116.9 | 91.35 | 47.2 | 101.35 | 85.81 | 80.11 | 56.8 | 89.02 | 74.2 | 61.1 | 77 | 64.88 | 71.44 | 54.12 | 94.19 | 52.06 | 99.49
CC1(C)CC(=O)c2cc3c(N)c(C(=O)Nc4ccccc4Cl)sc3nc2C1 | 117.15 | 100.17 | 106.42 | 125.06 | 107.93 | 100.73 | 111.8 | 105.18 | 118.29 | 105.8 | 117.18 | 102.37 | 113.5 | 117.4 | 104.02 | 102.03 | 99.6 | 131.48 | 108.32 | 112.91
Cc1ccc(C2=N/C(=C\c3ccccc3)C(=O)O2)cc1 | 105.76 | 101.68 | 103.53 | 122.06 | 109.52 | 105.32 | 103.23 | 102.12 | 108.05 | 104.18 | 130.71 | 107.92 | 114.29 | 108.78 | 101.52 | 103.22 | 105.06 | 114.1 | 102.87 | 96.01
Nc1c(C(=O)Nc2cccc(Cl)c2)sc2nc3c(cc12)C(=O)CCC3 | 46.08 | 43.7 | 38.19 | 10.22 | 35.17 | 27.21 | 27.25 | -39.08 | 26.93 | 29.1 | 25.93 | 46.41 | 27.38 | 21.64 | 68.88 | 47.72 | 52.94 | 71.82 | 51.81 | 4.53
CC1(C)CC(=O)c2cc3c(N)c(C(=O)NCc4ccccc4)sc3nc2C1 | 102.22 | 102.76 | 108.68 | 128.9 | 111.17 | 91.1 | 96.57 | 91.3 | 98.42 | 95.51 | 93.07 | 99.82 | 103.66 | 105.75 | 104.6 | 109.38 | 100.55 | 101.83 | 101.22 | 123.14
Clc1cccc(-c2nc(-c3cccs3)no2)c1 | 94.7 | 88.07 | 105.12 | 109.49 | 99.21 | 87.95 | 102.16 | 106.73 | 105.36 | 84.44 | 114.21 | 84.62 | 97.8 | 102.96 | 86.41 | 94.52 | 56.93 | 99.44 | 95.28 | 99.53
O=c1/c(=C/c2ccccc2)sc2nc(-c3ccc(Cl)cc3Cl)nn12 | 96.37 | 103 | 110.52 | 123.34 | 98.1 | 104.93 | 114.11 | 119.04 | 103.86 | 115.99 | 111.76 | 105.46 | 100.59 | 114.89 | 83.86 | 111.75 | 94.32 | 131.46 | 111.72 | 102.33
CC1(C)CC(=O)c2cc3c(N)c(C(=O)Nc4ccc(F)cc4)sc3nc2C1 | 102.36 | 119.59 | 131.09 | 133.12 | 109.93 | 99.04 | 96.07 | 103.15 | 121.48 | 110.47 | 108.89 | 101.59 | 114.92 | 115.29 | 107.39 | 104.75 | 111.5 | 110.83 | 103.3 | 111.09
COc1ccc(S(=O)(=O)n2ccc(-c3ccc4c(c3)CCC(C)(C)O4)n2)cc1 | 79.45 | 50.48 | 87.12 | 107.28 | 90.41 | 42.57 | 102.86 | 74.3 | 86.46 | 78.05 | 110.14 | 84.18 | 68.33 | 81.91 | 57.41 | 67.61 | 46.7 | 101 | 49.25 | 97.76
O=C(Nc1nc2ccc(Cl)cc2s1)c1ccc(Cl)cc1 | 98.77 | 101.97 | 125.32 | 105.29 | 89.31 | 94.67 | 88.34 | 90.92 | 106.22 | 89.01 | 111.55 | 94.55 | 98.42 | 102.62 | 94.31 | 101.53 | 93.28 | 111.02 | 95.05 | 98.57
COc1ccc(NC(=O)c2sc3nc4c(cc3c2N)C(=O)CCC4)cc1 | 100.6 | 110.45 | 116.74 | 122.21 | 115.02 | 98.62 | 102.64 | 97.12 | 103.89 | 99.67 | 101.13 | 106.61 | 97.11 | 105.15 | 117.22 | 100.45 | 110.7 | 57.79 | 104.85 | 135.57
O=c1/c(=C/c2ccccc2Cl)sc2nc(-c3ccccc3)nn12 | 63.33 | 83.77 | 90.58 | 113.47 | 104.04 | 93.49 | 94.89 | 78.08 | 76.15 | 72.09 | 99.76 | 89.87 | 72.43 | 89.57 | 85.66 | 101.12 | 90.39 | 96.56 | 50.72 | 89.46
COc1ccc2[nH]c(C(=O)NCc3ccccc3)cc2c1 | 103.84 | 91.05 | 101.29 | 123.53 | 108.16 | 97.92 | 101.58 | 104.78 | 104.15 | 102.32 | 101.97 | 98.45 | 94.88 | 111.34 | 103.04 | 103.19 | 85.87 | 90.03 | 90.52 | 112.57
